Data reported in US20240409864A1, “Apparatus and Methods for Generating and Analyzing Three-Dimensional Cellular Materials” (Agilent Technologies, Inc., priority 2021, published 2024).

Experiments:
C2C12 spheroids = C2C12 spheroids about 180 and 140 micrometers, final concentration 1 μM, BioFLOAT coating, no centrifugation
Source text: (§1) Panc1, HepG2, and C2C12 cell lines were used to form spheroids in an apparatus with wells having the geometry shown at least in FIGS. 2, 3, and 4 of the present disclosure. The wells were coated with either Lipidure® or BioFLOAT® ultra low adhesion coatings according to manufacturer protocols, after which the cell lines were introduced to the well plates and spheroids were formed according to the following protocol: • Apply ULA coatings according to manufacturer's protocols • Use trypsin to detach cells of interest (C2C12, Panc1, or HepG2) and create a single cell suspension • Deactivate trypsin via addition of complete culture media • Perform a cell count • Centrifuge the cell suspension at 250 G for 5 minutes and resuspend the pellet in fresh medium at the required density. • Add 300-1500 cells per well with fresh growth medium to a final volume of 200 ul per well • Centrifuge, if necessary, at 250 G for 5 minutes with low deceleration. Centrifugation helps the cells to come together, if needed. • When desirable tight clusters are formed (typically 3-5 days), proceed with the Seahorse XF assay. • DMEM PH 7.4 media from Seahorse supplemented with glutamine, sodium pyruvate and glucose were used (same concentration as the growth medium). • With a multiple channel, pull out about 100 microliters of spent medium and add 100 microliters of fresh Seahorse medium slowly sliding through the walls. • Follow with 3-5 washes to dilute out the old media from the wells. • Perform desired Seahorse assay-Basal, Mito Stress Test, FCCP addition, or others.
(§2) Next, C2C12 and Panc1 cells were seeded in BioFLOAT® coated spheroid plates as contemplated by the present disclosure at two different concentrations. The cells were allowed to settle without centrifugation and form spheroids for two days. […] The largest cross-sectional diameter was measured to characterize the size of the spheroids.

Panc1 spheroids [1] = conditions: Panc1 spheroids about 325 and 250 micrometers, final concentration 1 μM, BioFLOAT coating, no centrifugation
Source text: as §1, §2

Panc1 spheroids [2] = assay: Mitochondrial stress test, oxygen consumption rate (Seahorse XF); format: cell-based; conditions: Panc1 spheroids assayed after 8 days; polished plate, 20 microliters Lipidure coating; FIG. 15
Source text: (§3) A common test performed on the system described above is a mitochondrial stress test. In this assay a series of injections are delivered through the drug ports of the cartridge in order to measure the response of the biological sample to various compounds (oligomycin, FCCP, rotenone and antimycin). These compounds are preloaded into a drug reservoir (port) on the XF cartridge prior to execution of the assay. When the cartridge is inserted into the instrument it is coupled to a manifold which when activated by a solenoid valve, provides pneumatic pressure to the head space of the reservoir forcing the compound through a small orifice and into the well containing the biological sample.
First, Panc1/HepG2 cells were grown in the well plates generally contemplated by the present disclosure but with only a single concentric lip as well as commercially available plates, followed by the transfer of the spheroids cultured in the commercially available plates to the plates of the present disclosure. The experimental protocol was as follows: • 1. Add 50 ul of Lipidure solution (prepared in ETOH) to the plates. Leave overnight at 37 degrees C. or at 50 degrees C. for 1 hour for the ETOH to evaporate. • 2. Trypsinize the HepG2 with multiple washes of Mg—Ca free PBS to make single cells. Leave in incubator at 37 deg C. for 2-3 mins. • 3. […]

HepG2 spheroids = assay: as above; format: cell-based; conditions: HepG2 spheroids assayed after 6 days, 50 microliters Lipidure coating
Source text: as §3
The experimental protocol was as follows: • 1. Add 50 ul of Lipidure solution (prepared in ETOH) to the plates. Leave overnight at 37 degrees C. or at 50 degrees C. for 1 hour for the ETOH to evaporate. • 2. Trypsinize the HepG2 with multiple washes of Mg—Ca free PBS to make single cells. Leave in incubator at 37 deg C. for 2-3 mins. • 3. Transfer cells to centrifugal tube and add PBS to fill half the tube then count cells based on density prior to centrifugation. • 4. Centrifuge the cell suspension and resuspend the pellet in fresh medium. • 5. Add 10K cells per well with fresh growth medium (180 ul per well) • 6. Centrifuge, if necessary, at 1000 rpm for 2-3 minutes with low deceleration. Centrifugation helps the cells to come together, if needed. • 7. When desirable tight clusters are formed (3-5 days), proceed with the Seahorse XF assay. • 8. For HepG2, DMEM PH 7.4 media from Seahorse supplemented with glutamine, sodium pyruvate and glucose were used (same concentration as the growth medium). • 9. With a multiple channel, pull out about 150 microliters of spent medium and add 180 microliters of fresh Seahorse medium slowly sliding through the walls. • 10. Follow with 2-3 washes to dilute out the FBS from the wells. • 11. After every wash check if the spheroid is still in the center. The white spot of the spheroid is easily seen on dark lab counter tops. • 12. Follow known protocol for traditional oxygen consumption rate (OCR) assay based on the mitochondrial stress test described in detail above. • 13. Take before and after images to verify the spheroids remain centered throughout. • 14.
Further, and referring to FIGS. 16 and 17, the oxygen consumption rate was performed on wells 1-6 using the mitochondrial stress test described above using HepG2 spheroids generated and assayed after 6 days in a plate with the geometric configuration of the present disclosure.

## FCCP
C2C12 spheroids; FIG. 44
  oxygen consumption rate (OCR) after injection: increased
C2C12 spheroids; FIG. 45
  extra cellular acidification rate (ECAR) after injection: increased
Panc1 spheroids [1]; FIG. 42
  oxygen consumption rate (OCR) after injection: increased
Panc1 spheroids [1]; FIG. 43
  extra cellular acidification rate (ECAR) after injection: increased
Panc1 spheroids [2]
  oxygen consumption rate response: good response
HepG2 spheroids; polished plate, FIG. 19
  oxygen consumption rate response: good response
HepG2 spheroids; unpolished plate, FIG. 17
  oxygen consumption rate response: good response

## CC[C@H]1/C=C/C=C/C[C@@H](C)[C@H](O)[C@@](C)(O)C(=O)[C@@H](C)[C@H](O)[C@@H](C)C(=O)[C@@H](C)[C@H](O)[C@@H](C)/C=C/C(=O)O[C@@H]2[C@H](C)[C@H](CC1)O[C@]1(CC[C@H](C)[C@H](C[C@@H](C)O)O1)[C@H]2C [oligomycin]
Panc1 spheroids [2]
  oxygen consumption rate response: did not show the dip on oxygen consumption
HepG2 spheroids; polished plate, FIG. 19
  oxygen consumption rate response: good response
HepG2 spheroids; unpolished plate, FIG. 17
  oxygen consumption rate response: good response
